# According to paper PMC10443802, “Targeting a xenobiotic transporter to ameliorate vincristine-induced sensory neuropathy” (JCI Insight, 2023):
# Values joined by “and” are separate entries in the source; they are usually repeats but may differ in a detail not shown here. Equal values may be shown once.
# Key:
# [1] = test system: RS411; assay: Cytotoxicity of vincristine with or without nilotinib, MTT assay, RS411; assay type: cell-based, human; conditions: RS411 cells, vincristine alone, individual replicates
# [2] = Plasma pharmacokinetics of vincristine in mice; conditions: for concentration at 1 h / concentration at 4 h / concentration at 0.5 h / concentration at 0.25 h / AUC(0-t) / Cmax / concentration at 2 h: mouse, in vivo; for AUC(0-t) / Cmax: male; for AUC(0-t): AUC0-4h
# Protocol: were collected at the final time point. […]
# specimens were stored at -80°C until further processing. […]
# stainless steel bead (Qiagen) and processed for 4 min at 40 Hz. Finally, the beads were removed, and the homogenized samples were stored at -80°C until analysis by LC-MS/MS.
# Pharmacokinetic parameters were calculated by non -compartmental analysis using Phoenix WinNonlin version 8.0 (Certara). Peak plasma concentration (C max) was determined by visual inspection of the data from the concentration-time curves. The linear trapezoidal rule was used to obtain the area under the plasma concentration-time curve (AUC), and drug levels in tissues were corrected for […]
# Determination of drug levels.
# Quantiva triple quadrupole mass spectrometer from Thermo Fisher Scientific was used for LC-MS/MS […]
# column was maintained at 50°C. […]
# quantification was 5 ng/mL.
# 450 °C. […] Precursor molecular ions and […]
# dose of 4 mg/kg. […] The sample
# Morphologic and morphometric evaluation. […]
# for light microscopy and morphometric analysis.
# [3] = target: hOAT1 (Homo sapiens, UniProt Q4U2R8); assay: Vincristine uptake screen, HeLa cells overexpressing hOAT1; assay type: in vitro ADME
# Sequence of hOAT1 (Q4U2R8 whole entry): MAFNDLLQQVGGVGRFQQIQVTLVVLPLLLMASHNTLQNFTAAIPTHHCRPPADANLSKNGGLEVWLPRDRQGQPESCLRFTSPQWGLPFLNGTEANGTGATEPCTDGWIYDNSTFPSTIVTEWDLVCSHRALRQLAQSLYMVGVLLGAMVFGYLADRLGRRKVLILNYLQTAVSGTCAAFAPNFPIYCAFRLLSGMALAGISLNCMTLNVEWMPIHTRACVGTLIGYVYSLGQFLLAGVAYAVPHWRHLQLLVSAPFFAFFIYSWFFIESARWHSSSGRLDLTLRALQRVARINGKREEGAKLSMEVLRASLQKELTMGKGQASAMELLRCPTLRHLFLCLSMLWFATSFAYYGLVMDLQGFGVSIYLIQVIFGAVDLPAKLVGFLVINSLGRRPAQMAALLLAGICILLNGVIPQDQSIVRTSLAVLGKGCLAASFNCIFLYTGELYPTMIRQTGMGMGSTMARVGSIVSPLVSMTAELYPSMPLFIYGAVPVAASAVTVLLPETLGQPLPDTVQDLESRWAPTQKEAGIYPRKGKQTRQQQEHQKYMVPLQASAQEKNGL
# Protocol: Relative uptake is expressed as percentage change compared with empty vector controls (n = 4–14 per group). […] Human OATP1B1 and OATP1B3 transporter–overexpressed cells were used as positive controls; empty vector controls were used as the negative control. […] Mechanical allodynia (C), thermal hyperalgesia (D), and sciatic nerve maximal action potential amplitudes (E) are expressed as percentage change relative to baseline values (n = 6–8 per group). Statistical analysis was performed using a 2-way ANOVA with Bonferroni’s post hoc test. **P < 0.01, ***P < 0.001, ****P < 0.0001, compared with baseline values. […] Data are shown as mean ± SEM. […]
# transfected with transporters of interest, including hOAT1, hOAT3, hOAT4, hOATP1A2, hOATP3A1, hOATP4A1, hOATP5A1, hOATP1C1, hOATP1B1, hOATP1B3, hOATP2B1, hOCT1, hOCT2, hOCTN1, hOCTN2, hASBT, hNTCP, hNPT1, hMATE1, hOSTα/β, hPEPT1, hPEPT2, rOatp1a1, rOatp1a4, rOatp1a5, rOatp1b2, rNtcp, rAsbt, rOat1, and rOct1. Cells were transfected with expression plasmid or vector control lacking any insert using Lipofectin reagent (Invitrogen). […] The cellular radioactivity was quantified by liquid scintillation counting as described above. […]
# Samples were analyzed using real-time quantitative PCR and Taqman Probes (Applied Biosystems). The relative gene expression was determined using the ΔΔCt method, and normalized to the mouse or human housekeeping gene, GAPDH. […]
# [4] = Nilotinib levels in liver and DRG of mice; assay type: in vivo, mouse; conditions: OATP1B2(-/-) mice; for concentration at […]: DBA/1LacJ, mouse, liver, oral, Liver nilotinib
# Protocol: Pharmacokinetic studies. Pharmacokinetic studies were performed following an established protocol
# 0.5% hydroxypropyl-methylcellulose in water) was administered at a dose of 10 mg/kg . Serial whole blood
# points, from the retro-orbital sinus vein for the subsequent two time-points, and cardiac puncture at the terminal time-point. Blood samples were centrifuged at 11,000 rpm for 5 min, and the plasma supernatants collected and stored at -80°C until analysis by a validated method based on reversed -phase liquid chromatography coupled to tandem mass-spectrometric detection (LC-MS/MS).
# mg/kg or 100 mg/kg, and after 1.5 h, plasma, liver, and whole DRG were collected. All plasma and tissue specimens were stored at -80°C until further processing.
# injection at a dose of 1 mg/kg. Whole blood samples were collected 0.08, 0.25, 0.5, 1, and 4 h, and livers were collected at the final time point.
# An Accucore aQ column (150 × 2.1 mm, dp = 2.6 μm, Thermo Fisher Scientific) was protected
# volume was 5.0 μL. The temperature of the autosampler rack was 4°C, and the temperature of the
# column was maintained at 50°C. Mobile phase A consisted of water with 0.1% (v/v) formic acid and
# mobile phase B consisted of acetonitrile: methanol (1:1) with 0.1% (v/v) formic acid.
# assay setting with the positive voltage applied to the ESI capillary was set at 4000 V, and the capillary
# [5] = test system: OATP1B-type transporters; conditions: read-out: IC50, inhibition of OATP1B-mediated transport; cited from earlier work
# [6] = DBA/1LacJ, ip, 1 mg/kg, Plasma concentration of vincristine
# [7] = ip, 1 mg/kg, Plasma concentration of vincristine
compound,measurement,setting,value
"CC[C@]1(O)C[C@H]2CN(CCc3c([nH]c4ccccc34)[C@@](C(=O)OC)(c3cc4c(cc3OC)N(C=O)[C@H]3[C@@](O)(C(=O)OC)[C@H](OC(C)=O)[C@]5(CC)C=CCN6CC[C@]43[C@@H]65)C2)C1 [Vincristine, vincristine]",IC50,[1],4.81 nM and 6.23 nM and 4 nM and 8.42 nM and 6.45 nM and 7.46 nM and 5.33 nM and 4.58 nM and 7.35 nM
same,concentration at 1 h,"[2]; DBA/1LacJ, 1 mg/kg, Plasma concentration of vincristine, OATP1B2(-/-) + Vehicle, vincristine 1 mg/kg, 1 h",88.4 ng/mL
same,concentration at 4 h,"[2]; DBA/1LacJ, 1 mg/kg, Plasma concentration of vincristine, OATP1B2(-/-) + Vehicle, vincristine 1 mg/kg, 4 h",65.5 ng/mL
same,concentration at 0.5 h,"[2]; DBA/1LacJ, Plasma concentration of vincristine, OATP1B2(-/-) + Nilotinib (100 mg/kg pretreatment), vincristine 1 mg/kg, 0.5 h",225 ng/mL
same,concentration at 1 h,"[2]; DBA/1LacJ, Plasma concentration of vincristine, OATP1B2(-/-) + Nilotinib (100 mg/kg pretreatment), vincristine 1 mg/kg, 1 h",108 ng/mL
same,concentration at 0.25 h,[2]; [6],707 ng/mL
same,concentration at 0.5 h,[2]; [6],599 ng/mL
same,concentration at 1 h,[2]; [6],315 ng/mL
same,concentration at 4 h,[2]; [6],90.9 ng/mL
same,Plasma concentration of Vincristine,"[2]; Wild-type mice, 2 h",104.1 ng/mL
same,AUC(0-t),"[2]; DBA/1LacJ, ip, 1 mg/kg",1290 ± 49.8 ng·h/mL
same,Cmax,"[2]; DBA/1LacJ, ip, 1 mg/kg",1130 ± 148 ng/mL
same,AUC(0-t),"[2]; ip, 1 mg/kg",1060 ± 36.2 ng·h/mL
same,Cmax,"[2]; ip, 1 mg/kg",1190 ± 113 ng/mL
same,concentration at 1 h,"[2]; 1 mg/kg, Plasma concentration of Vincristine (ng/mL), OATP1A/1B(-/-) mice, 1 h",195 ng/mL
same,concentration at 2 h,"[2]; 1 mg/kg, Plasma concentration of Vincristine (ng/mL), OATP1A/1B(-/-) mice, 2 h",89.9 ng/mL
same,concentration at 2 h,"[2]; 1 mg/kg, Plasma concentration of Vincristine (ng/mL), Wild-type mice, 2 h",112 ng/mL
same,concentration at 1 h,"[2]; 1 mg/kg, Plasma concentration of vincristine, Wild-type + Vehicle, vincristine 1 mg/kg, 1 h",116 ng/mL
same,concentration at 0.5 h,"[2]; Plasma concentration of vincristine, Wild-type + Nilotinib (100 mg/kg pretreatment), vincristine 1 mg/kg, 0.5 h",124 ng/mL
same,concentration at 1 h,"[2]; Plasma concentration of vincristine, Wild-type + Nilotinib (100 mg/kg pretreatment), vincristine 1 mg/kg, 1 h",104 ng/mL
same,concentration at 0.25 h,[2]; [7],735 ng/mL
same,concentration at 0.5 h,[2]; [7],376 ng/mL
same,concentration at 1 h,[2]; [7],273 ng/mL
same,concentration at 4 h,[2]; [7],114 ng/mL
same,concentration at 4 h,"[2]; ip, 1 mg/kg, Plasma concentration of vincristine, Wild-type mice, 1 mg/kg i.p., 4 h",102 ng/mL
same,Vincristine uptake (% of vector control),[3],127.00 % of vector control and 112.00 % of vector control and 76.00 % of vector control and 98.00 % of vector control and 129.00 % of vector control and 120.00 % of vector control and 111.00 % of vector control and 117.00 % of vector control
"Cc1cn(-c2cc(NC(=O)c3ccc(C)c(Nc4nccc(-c5cccnc5)n4)c3)cc(C(F)(F)F)c2)cn1 [Nilotinib, nilotinib]",concentration at […],[4]; 25 mg/kg,11900 ng/g
same,concentration at […],[4]; 100 mg/kg,33700 ng/g
same,Liver nilotinib,[4]; 25mg/kg,14.24 ng/mg tissue and 15.56 ng/mg tissue
same,Liver nilotinib,[4]; 100mg/kg,30.37 ng/mg tissue and 41.94 ng/mg tissue
same,IC50,[5],~1000 nM
